Measured values: patent publication US8143421B2, “Broadspectrum substituted benzimidazole sulfonamide HIV protease inhibitors” (priority 2002, dated 2012)

How the values were obtained:
HIV-1 strain LAI = assay: Cellular anti-HIV assay, MT4 cells, MTT readout, wild type HIV-1 strain LAI; type: cell-based; conditions: for WT (pIC50 against wild type HIV-LAI strain): Table 4
Procedure: The compounds of the present invention were examined for anti-viral activity in a cellular assay. […] The cellular assay was performed according to the following procedure.

mutant A = type: cell-based; conditions: FR=IC50(mutant strain)/IC50(HIV-1 strain LAI)
Procedure: (§1) HIV- or mock-infected MT4 cells were incubated for five days in the presence of various concentrations of the inhibitor. […] Cell viability is measured by measuring the concentration of MTT, a yellow, water soluble tetrazolium dye that is converted to a purple, water insoluble formazan in the mitochondria of living cells only. Upon solubilization of the resulting formazan crystals with isopropanol, the absorbance of the solution is monitored at 540 nm. The values correlate directly to the number of living cells remaining in the culture at the completion of the five day incubation. The inhibitory activity of the compound was monitored on the virus-infected cells and was expressed as IC50 and IC90. These values represent the amount of the compound required to protect 50% and 90%, respectively, of the cells from the cytopathogenic effect of the virus. […] The selectivity index (SI) (ratio CC50/IC50) is an indication of the selectivity of the anti-HIV activity of the inhibitor. Wherever results are reported as e.g. pIC50 or pCC50 values, the result is expressed as the negative logarithm of the result expressed as IC50 or CC50 respectively.
(§2) Because of the increasing emergence of drug resistant HIV strains, the present compounds were tested for their potency against clinically isolated HIV strains harboring several mutations. […] The viral strains R13025, R13027, R13028, R13029, R13034, R13080, T13127 and R13363 contained mutations as indicated below in Table 3.
(§3) As a measure of the broad spectrum activity of the present compounds, the fold resistance (FR), defined as FR=IC50(mutant strain)/IC50(HIV-1 strain LAI), was determined.

mutant E = type: cell-based; conditions: FR=IC50(mutant strain)/IC50(HIV-1 strain LAI)
Procedure: as §1, §2, §3

mutant H = assay: Antiviral spectrum, fold resistance towards mutant H; type: cell-based; conditions: FR=IC50(mutant strain)/IC50(HIV-1 strain LAI)
Procedure: Because of the increasing emergence of drug resistant HIV strains, the present compounds were tested for their potency against clinically isolated HIV strains harboring several mutations. These mutations are associated with resistance to protease inhibitors and result in viruses that show various degrees of phenotypic cross-resistance to the currently commercially available drugs such as for instance saquinavir, ritonavir, nelfinavir, indinavir and amprenavir. The viral strains R13025, R13027, R13028, R13029, R13034, R13080, T13127 and R13363 contained mutations as indicated below in Table 3.

mock-infected MT4 cells = assay: in vitro
Procedure: as §1, §3

[1] = Table 1, MT4 cells, five days, HIV-1 strain LAI
[2] = Table 2, MT4 cells, five days, HIV-1 strain LAI
[3] = pCC50 value as determined with mock transfected cells

| IC50 (HIV-1 strain LAI; Human immunodeficiency virus 1, 120 h, Table 1, MT4 cells, five days, HIV-1 strain LAI, read-out: pIC50 (LAI) (converted)) [nM] | SMILES | pIC50 (LAI) (HIV-1 strain LAI; [1]) | WT (pIC50 against wild type HIV-LAI strain) (HIV-1 strain LAI) | FR value towards mutant A (mutant A) | FR towards mutant E (mutant E) | FR towards mutant H (mutant H) | Tox (pCC50) (mock-infected MT4 cells) | pIC50 (LAI) (HIV-1 strain LAI; [2]) | Tox (pCC50) (mock-infected MT4 cells; [3]) |
| --- | --- | --- | --- | --- | --- | --- | --- | --- | --- |
|  | CC(C)CN(CC(O)C(Cc1ccccc1)NC(=O)OC1COC2OCCC12)S(=O)(=O)c1ccc2ncn(Cc3ccncc3)c2c1 (stereo not drawn) [Compound 28] | 7.5 | 7.5 | 1.5 | 1.3 | 2.6 |  |  |  |
|  | Cc1cccc(C)c1OCC(=O)N[C@@H](Cc1ccccc1)[C@H](O)CN(CC(C)C)S(=O)(=O)c1ccc2ncn(CC(C)C)c2c1 [Compound 45] | 6.3 | 6.3 | 9.3 | 7.4 |  | <4 |  |  |
|  | COC(=O)Nc1nc2ccc(S(=O)(=O)N(CC(C)C)C[C@@H](O)[C@H](Cc3ccccc3)NC(=O)c3ccc(O)cc3C)cc2[nH]1 [Compound 25] | 7.1 | 7.1 | 1.2 | 1.3 | 4.6 | 4.3 |  |  |
|  | COC(=O)Nc1nc2ccc(S(=O)(=O)N(CC(C)C)CC(O)C(Cc3ccccc3)NC(=O)OC3COC4OCCC34)cc2[nH]1 (stereo not drawn) [Compound 10] | 8.0 |  |  |  |  |  |  |  |
|  | CC(C)CN(C[C@@H](O)[C@H](Cc1ccccc1)NC(=O)OCc1cncs1)S(=O)(=O)c1ccc2ncn(C)c2c1 [Compound 33] | 7.0 | 7.7 | 60 | 19 | 234 | <4 |  |  |
|  | Cc1cccc(C)c1OCC(=O)N[C@@H](Cc1ccccc1)[C@H](O)CN(CC(C)C)S(=O)(=O)c1ccc2ncn(C)c2c1 [Compound 31] | 7.2 | 7.2 | 13 | 9.5 | 209 | 4.24 |  |  |
|  | CC(C)CN(C[C@@H](O)[C@H](Cc1ccccc1)NC(=O)OC1COC2OCCC12)S(=O)(=O)c1ccc2nc(N)[nH]c2c1 (stereo partly drawn) [Compound 59] | 5.3 | 5.3 | 1.5 | 0.31 | 0.39 | <4 |  |  |
|  | CC(C)CN(C[C@@H](O)[C@H](Cc1ccccc1)NC(=O)OC(C)(C)C)S(=O)(=O)c1ccc2nc(N)n(Cc3ccccc3)c2c1 [Compound 39] | 6.9 | 6.9 | 32 | 3.5 |  |  |  |  |
|  | CC(C)CN(CC(O)C(Cc1ccccc1)NC(=O)OC1COC2OCCC12)S(=O)(=O)c1ccc2c(c1)ncn2CCN(C)C (stereo not drawn) [Compound 60] |  |  |  |  |  |  | 6.5 |  |
|  | CC(C)CN(CC(O)C(Cc1ccccc1)NC(=O)OC1COC2OCCC12)S(=O)(=O)c1ccc2ncn(Cc3cncn3C)c2c1 (stereo not drawn) [Compound 51] | 6.2 | 6.2 | 2.8 | 0.89 | 2.1 |  |  |  |
|  | Cc1cccc(C)c1OCC(=O)N[C@@H](Cc1ccccc1)[C@H](O)CN(CC(C)C)S(=O)(=O)c1ccc2nc[nH]c2c1 [Compound 29] | 7.1 | 7.1 | 14 | 13 | 78 | 4.21 |  |  |
|  | CC(C)CN(C[C@@H](O)[C@H](Cc1ccccc1)NC(=O)O[C@H]1CCOC1)S(=O)(=O)c1ccc2ncn(CC(C)C)c2c1 [Compound 14] | 7.7 |  |  |  |  |  |  |  |
|  | CC(C)CN(C[C@@H](O)[C@H](Cc1ccccc1)NC(=O)OC1COC2OCCC12)S(=O)(=O)c1ccc2nc[nH]c2c1 (stereo partly drawn) [Compound 50] | 6.9 | 6.9 | 1.4 | 0.83 | 2.8 | <4 |  |  |
|  | Cc1cc(OCC(=O)N[C@@H](Cc2ccccc2)[C@H](O)CN(CC(C)C)S(=O)(=O)c2ccc3nc[nH]c3c2)no1 [Compound 49] | 6.3 | 6.3 | 12 | 1.0 | 3.5 |  |  | <4 |
|  | Cc1c(N)cccc1C(=O)N[C@@H](Cc1ccccc1)[C@H](O)CN(CC(C)C)S(=O)(=O)c1ccc2nc[nH]c2c1 [Compound 46] | 6.4 | 6.4 |  |  |  |  |  | <4 |
|  | Cc1cccc(C)c1OCC(=O)N[C@@H](Cc1ccccc1)[C@H](O)CN(CC(C)C)S(=O)(=O)c1ccc2ncn(CCc3ccccc3)c2c1 [Compound 47] | 6.4 | 6.4 | 14 | 7.8 | 66 |  |  | <4 |
|  | Cc1cccc(C)c1OCC(=O)N[C@@H](Cc1ccccc1)[C@H](O)CN(CC(C)C)S(=O)(=O)c1ccc2nc(N)[nH]c2c1 [Compound 36] | 6.5 | 6.5 | 4.4 | 3.1 | 17 | 4.19 |  |  |
|  | CC(C)CN(C[C@@H](O)[C@H](Cc1ccccc1)NC(=O)OCc1cncs1)S(=O)(=O)c1ccc2ncn(Cc3ccccc3)c2c1 [Compound 30] | 7.1 | 7.1 | 18 | 13 | 65 |  |  |  |
|  | CC(C)CN(C[C@@H](O)[C@H](Cc1ccccc1)NC(=O)OC(C)(C)C)S(=O)(=O)c1ccc2ncn(CCc3ccccc3)c2c1 [Compound 43] | 6.4 | 6.4 | 22 | 12.6 | 28 |  |  | 4.99 |
|  | CC(C)CN(C[C@@H](O)[C@H](Cc1ccccc1)NC(=O)OCc1cccnc1)S(=O)(=O)c1ccc2nc[nH]c2c1 [Compound 35] | 7.0 | 7.0 | 91 | 17 | 148 |  |  | <4 |
|  | CC(C)CN(C[C@@H](O)[C@H](Cc1ccccc1)NC(=O)O[C@H]1CCOC1)S(=O)(=O)c1ccc2nc(N)[nH]c2c1 [Compound 53] | 6.0 | 6.0 |  |  |  | 4.05 |  |  |
|  | CC(C)CN(C[C@@H](O)[C@H](Cc1ccccc1)NC(=O)O[C@H]1CO[C@H]2OCC[C@H]21)S(=O)(=O)c1ccc2nc(NCCN3CCCC3)n(CCc3ccccc3)c2c1 [Compound 40, [(1S,2R)-2-hydroxy-3-[[[[1-(phenethyl)-2-[2-(pyrrolidin-1-yl)ethylamino]]benzimidazol-6-yl]sulfonyl](2-methylpropyl)amino]-1-(phenylmethyl)propyl]carbamic acid, [(3R,3aS,6aR)-hexahydrofuro[2,3-b]furan-3-yl]ester] | 6.4 | 6.4 | 10 | 4.0 | 7.9 |  |  |  |
|  | Cc1cc(N)cc(C)c1OCC(=O)N[C@@H](Cc1ccccc1)[C@H](O)CN(CC(C)C)S(=O)(=O)c1ccc2c(c1)ncn2CCN(C)C [Compound 62] |  |  |  |  |  |  | 5.7 |  |
|  | CC(C)CN(C[C@@H](O)[C@H](Cc1ccccc1)NC(=O)O[C@H]1CCOC1)S(=O)(=O)c1ccc2nc[nH]c2c1 [Compound 42] | 7.1 | 7.1 |  | 8.7 | 52 | <4 |  |  |
| 39.8 | CC(C)CN(C[C@@H](O)[C@H](Cc1ccccc1)NC(=O)O[C@H]1CO[C@H]2OCC[C@H]21)S(=O)(=O)c1ccc2ncn(CCN3CCCC3)c2c1 [Compound 20, [(1S,2R)-2-hydroxy-1-(phenyl-methyl)-3-[[[1-[2-(pyrrolidin-1-yl)ethyl]benzimidazol-6-yl]sulfonyl](2-methylpropyl)-amino]propyl]carbamic acid, [(3R,3aS,6aR)-hexahydrofuro[2,3-b]furan-3-yl]ester] |  |  |  |  |  |  |  |  |
